Experimental data: patent publication US6339042B1, “Herbicidal N-cyclohexadienyl heteroaryloxyacetamides” (American Cyanamid Co., priority 1999, dated 2002)

Assays:
Conditions in all cases: three weeks after treatment
[1] = test system: Amaranthus tuberculatus; test: Pre-emergence herbicidal evaluation, AMATA; assay type: in vivo
Source text: (§1) The treated pots are then placed on greenhouse benches, watered and cared for in accordance with conventional greenhouse procedures.

[2] = test system: Alopecurus myosuroides; test: Pre-emergence herbicidal evaluation, ALOMY; assay type: in vivo
Source text: as §1

[3] = test system: Apera spica venti; test: Pre-emergence herbicidal evaluation, APESV; assay type: in vivo
Source text: as §1

[4] = test system: Echinochloa crus-galli; test: Pre-emergence herbicidal evaluation, ECHCG; assay type: in vivo
Source text: as §1

[5] = test system: Setaria viridis; test: Pre-emergence herbicidal evaluation, SETVI; assay type: in vivo
Source text: as §1

[6] = test system: Lolium perenne; test: Pre-emergence herbicidal evaluation, LOLPE; assay type: in vivo
Source text: as §1

[7] = test system: Triticum aestivum; test: Pre-emergence herbicidal evaluation, TRZAW; assay type: in vivo
Source text: as §1

[8] = test system: Hordeum vulgare; test: Pre-emergence herbicidal evaluation, HORVW; assay type: in vivo
Source text: as §1

[9] = test system: Zea mays; test: Pre-emergence herbicidal evaluation, ZEAMX; assay type: in vivo
Source text: as §1

[10] = test system: Glycine max; test: Pre-emergence herbicidal evaluation, GLXMA; assay type: in vivo
Source text: as §1

[11] = test system: Oryza sativum; test: Pre-emergence herbicidal evaluation, ORYSA; assay type: in vivo
Source text: as §1

[12] = test system: Amaranthus tuberculatus; test: Post-emergence herbicidal evaluation, AMATA; assay type: in vivo
[13] = test system: Galium aparine; test: Post-emergence herbicidal evaluation, GALAP
Description: (§2) The compounds of the invention are tested for pre- and post-emergence herbicidal activity.
(§3) Each pot is examined three weeks after treatment and phytotoxicity is assessed according to the rating system set forth below.
(§4) These acetone solutions are diluted with water and the resulting formulations applied at dosage levels equivalent of about 0.4 to 0.1 kg per hectare of test compound per pot. After spraying the plants are placed on greenhouse benches and are cared for in the usual manner, commensurate with conventional greenhouse practices.

[14] = test system: Alopecurus myosuroides; test: Post-emergence herbicidal evaluation, ALOMY
[15] = test system: Apera spica venti; test: Post-emergence herbicidal evaluation, APESV
[16] = test system: Echinochloa crus-galli; test: Post-emergence herbicidal evaluation, ECHCG
Description: as §2, §3, §4

[17] = test system: Setaria viridis; test: Post-emergence herbicidal evaluation, SETVI
[18] = test system: Lolium perenne; test: Post-emergence herbicidal evaluation, LOLPE
[19] = test system: Triticum aestivum; test: Post-emergence herbicidal evaluation, TRZAW
Description: as §3, §4

[20] = test system: Hordeum vulgare; test: Post-emergence herbicidal evaluation, HORVW
[21] = test system: Zea mays; test: Post-emergence herbicidal evaluation, ZEAMX
[22] = test system: Glycine max; test: Post-emergence herbicidal evaluation, GLXMA
Description: as §3, §4

[23] = test system: Oryza sativum; test: Post-emergence herbicidal evaluation, ORYSA

## CCc1nnc(OCC(=O)N(CC)C2=CC(C)(C)CC(C)=C2)s1 [Example 6]
[1]; 0.100 kg/ha
  phytotoxicity rating AMATA: 0 (0 - No effect)
[1]; 0.200 kg/ha
  phytotoxicity rating AMATA: 0 (0 - No effect)
[1]; 0.400 kg/ha
  phytotoxicity rating AMATA: 0 (0 - No effect)
[1]; 0.800 kg/ha
  phytotoxicity rating AMATA: 5 (5 - Definite injury)
[2]; 0.200 kg/ha
  phytotoxicity rating ALOMY: 5 (5 - Definite injury)
[2]; 0.400 kg/ha
  phytotoxicity rating ALOMY: 6 (6 - Herbicidal effect)
[2]; 0.800 kg/ha
  phytotoxicity rating ALOMY: 9 (9 - Complete kill)
[3]; 0.100 kg/ha
  phytotoxicity rating APESV: 0 (0 - No effect)
[3]; 0.200 kg/ha
  phytotoxicity rating APESV: 0 (0 - No effect)
[3]; 0.400 kg/ha
  phytotoxicity rating APESV: 0 (0 - No effect)
[3]; 0.800 kg/ha
  phytotoxicity rating APESV: 9 (9 - Complete kill)
[4]; 0.100 kg/ha
  phytotoxicity rating ECHCG: 3 (3 - Moderate effect)
[4]; 0.200 kg/ha
  phytotoxicity rating ECHCG: 6 (6 - Herbicidal effect)
[4]; 0.400 kg/ha
  phytotoxicity rating ECHCG: 8 (8 - Approaching complete kill)
[4]; 0.800 kg/ha
  phytotoxicity rating ECHCG: 9 (9 - Complete kill)
[5]; 0.200 kg/ha
  phytotoxicity rating SETVI: 5 (5 - Definite injury)
[5]; 0.400 kg/ha
  phytotoxicity rating SETVI: 8 (8 - Approaching complete kill)
[5]; 0.800 kg/ha
  phytotoxicity rating SETVI: 9 (9 - Complete kill)
[6]; 0.100 kg/ha
  phytotoxicity rating LOLPE: 0 (0 - No effect)
[6]; 0.200 kg/ha
  phytotoxicity rating LOLPE: 0 (0 - No effect)
[6]; 0.400 kg/ha
  phytotoxicity rating LOLPE: 5 (5 - Definite injury)
[6]; 0.800 kg/ha
  phytotoxicity rating LOLPE: 7 (7 - Good herbicidal effect)
[7]; 0.100 kg/ha
  phytotoxicity rating TRZAW: 0 (0 - No effect)
[7]; 0.200 kg/ha
  phytotoxicity rating TRZAW: 0 (0 - No effect)
[7]; 0.400 kg/ha
  phytotoxicity rating TRZAW: 0 (0 - No effect)
[7]; 0.800 kg/ha
  phytotoxicity rating TRZAW: 2 (2 - Slight effect)
[8]; 0.100 kg/ha
  phytotoxicity rating HORVW: 0 (0 - No effect)
[8]; 0.200 kg/ha
  phytotoxicity rating HORVW: 0 (0 - No effect)
[8]; 0.400 kg/ha
  phytotoxicity rating HORVW: 1 (1 - Trace effect)
[8]; 0.800 kg/ha
  phytotoxicity rating HORVW: 3 (3 - Moderate effect)
[9]; 0.100 kg/ha
  phytotoxicity rating ZEAMX: 0 (0 - No effect)
[9]; 0.200 kg/ha
  phytotoxicity rating ZEAMX: 0 (0 - No effect)
[9]; 0.400 kg/ha
  phytotoxicity rating ZEAMX: 0 (0 - No effect)
[9]; 0.800 kg/ha
  phytotoxicity rating ZEAMX: 0 (0 - No effect)
[10]; 0.100 kg/ha
  phytotoxicity rating GLXMA: 0 (0 - No effect)
[10]; 0.200 kg/ha
  phytotoxicity rating GLXMA: 0 (0 - No effect)
[10]; 0.400 kg/ha
  phytotoxicity rating GLXMA: 0 (0 - No effect)
[10]; 0.800 kg/ha
  phytotoxicity rating GLXMA: 0 (0 - No effect)
[11]; 0.100 kg/ha
  phytotoxicity rating ORYSA: 0 (0 - No effect)
[11]; 0.200 kg/ha
  phytotoxicity rating ORYSA: 0 (0 - No effect)
[11]; 0.400 kg/ha
  phytotoxicity rating ORYSA: 3 (3 - Moderate effect)
[11]; 0.800 kg/ha
  phytotoxicity rating ORYSA: 7 (7 - Good herbicidal effect)
[12]; 0.100 kg/ha
  phytotoxicity rating AMATA: 0 (0 - No effect)
[12]; 0.200 kg/ha
  phytotoxicity rating AMATA: 0 (0 - No effect)
[12]; 0.400 kg/ha
  phytotoxicity rating AMATA: 0 (0 - No effect)
[13]; 0.100 kg/ha
  phytotoxicity rating GALAP: 0 (0 - No effect)
[13]; 0.200 kg/ha
  phytotoxicity rating GALAP: 0 (0 - No effect)
[13]; 0.400 kg/ha
  phytotoxicity rating GALAP: 4 (4 - Injury)
[14]; 0.100 kg/ha
  phytotoxicity rating ALOMY: 0 (0 - No effect)
[14]; 0.200 kg/ha
  phytotoxicity rating ALOMY: 4 (4 - Injury)
[14]; 0.400 kg/ha
  phytotoxicity rating ALOMY: 8 (8 - Approaching complete kill)
[15]; 0.100 kg/ha
  phytotoxicity rating APESV: 0 (0 - No effect)
[15]; 0.200 kg/ha
  phytotoxicity rating APESV: 0 (0 - No effect)
[15]; 0.400 kg/ha
  phytotoxicity rating APESV: 1 (1 - Trace effect)
[16]; 0.100 kg/ha
  phytotoxicity rating ECHCG: 0 (0 - No effect)
[16]; 0.200 kg/ha
  phytotoxicity rating ECHCG: 0 (0 - No effect)
[16]; 0.400 kg/ha
  phytotoxicity rating ECHCG: 0 (0 - No effect)
[17]; 0.100 kg/ha
  phytotoxicity rating SETVI: 0 (0 - No effect)
[17]; 0.200 kg/ha
  phytotoxicity rating SETVI: 0 (0 - No effect)
[17]; 0.400 kg/ha
  phytotoxicity rating SETVI: 0 (0 - No effect)
[18]; 0.100 kg/ha
  phytotoxicity rating LOLPE: 0 (0 - No effect)
[18]; 0.200 kg/ha
  phytotoxicity rating LOLPE: 0 (0 - No effect)
[18]; 0.400 kg/ha
  phytotoxicity rating LOLPE: 0 (0 - No effect)
[19]; 0.100 kg/ha
  phytotoxicity rating TRZAW: 0 (0 - No effect)
[19]; 0.200 kg/ha
  phytotoxicity rating TRZAW: 0 (0 - No effect)
[19]; 0.400 kg/ha
  phytotoxicity rating TRZAW: 1 (1 - Trace effect)
[20]; 0.100 kg/ha
  phytotoxicity rating HORVW: 0 (0 - No effect)
[20]; 0.200 kg/ha
  phytotoxicity rating HORVW: 0 (0 - No effect)
[20]; 0.400 kg/ha
  phytotoxicity rating HORVW: 0 (0 - No effect)
[21]; 0.100 kg/ha
  phytotoxicity rating ZEAMX: 0 (0 - No effect)
[21]; 0.200 kg/ha
  phytotoxicity rating ZEAMX: 0 (0 - No effect)
[21]; 0.400 kg/ha
  phytotoxicity rating ZEAMX: 0 (0 - No effect)
[22]; 0.100 kg/ha
  phytotoxicity rating GLXMA: 3 (3 - Moderate effect)
[22]; 0.200 kg/ha
  phytotoxicity rating GLXMA: 4 (4 - Injury)
[22]; 0.400 kg/ha
  phytotoxicity rating GLXMA: 4 (4 - Injury)
[23]; 0.100 kg/ha
  phytotoxicity rating ORYSA: 0 (0 - No effect)
[23]; 0.200 kg/ha
  phytotoxicity rating ORYSA: 1 (1 - Trace effect)
[23]; 0.400 kg/ha
  phytotoxicity rating ORYSA: 2 (2 - Slight effect)
